From patent US9999616B2 (ZENITH EPIGENETICS LTD., priority 2013, dated 2018)

Tests used:
[1] = tested on: c-myc in Human AML MV4-11 cells; test: Inhibition of cMYC expression (mRNA, real-time PCR) in MV4-11 cells; type: cell-based; conditions: 3 h treatment, cMYC mRNA by real-time PCR
Procedure, shortened: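 MV4-11 cells in IMDM with 10% FBS were treated with increasing compound concentrations (DMSO 0.1%) for 3 h at 37 °C, in triplicate. Isolated mRNA was quantified by one-step TaqMan RT-qPCR, cMYC Ct normalized to cyclophilin, and fold expression given relative to DMSO control.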

MV4-11 cells = test: In vivo efficacy in athymic nude mouse acute myeloid leukemia xenograft model using MV4-11 cells; conditions: athymic nude mouse AML xenograft (MV4-11), oral dosing
Method: MV4-11 cells (ATCC) were grown under standard cell culture conditions and (NCr) nu/nu fisol strain of female mice age 6-7 weeks were injected with 5×10^6 cells/animal in 100 μL PBS+100 μL Matrigel in the lower left abdominal flank. By approximately day 18-21 after MV4-11 cells injection, mice were randomized based on tumor volume (L×W×H)/2) of average ˜100-300 mm^3. Mice were dosed orally with compound at 5 to 120 mg/kg b.i.d and/or q.d. on a continuous dosing schedule and at 2.5 to 85 mg/kg q.d. on a 5 day on 2 day off, 100 mg/kg q.d. on a 4 day on and 3 day off, 135 mg/kg q.d. on a 3 day on and 4 day off, 180 mg/kg on a 2 day on and 5 day off and 240 mg/kg on a 1 day on and 6 days off dosing schedules in EA006 formulation at 10 mL/kg body weight dose volume. Tumor measurements were taken with electronic micro calipers and body weights measured on alternate days beginning from dosing period. The average tumor volumes, percent Tumor Growth Inhibition (TGI) and % change in body weights were compared relative to Vehicle control animals. The means, statistical analysis and the comparison between groups were calculated using Student's t-test in Excel.

hIL-6 mRNA = test: Inhibition of hIL-6 mRNA transcription in LPS-stimulated U937 macrophages; type: cell-based, Human; conditions: Homo sapiens, U-937, PMA-differentiated U937 cells, 1 h pretreatment, LPS 3 h, read-out: IL-6 activity
Procedure, shortened: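 PMA-differentiated U937 macrophages (60 ng/mL PMA, 3 days) pretreated 1 h with compound in 0.1% DMSO, then stimulated with 1 ug/mL E. coli LPS for 3 h at 37° C. IL-6 mRNA quantified by one-step TaqMan qRT-PCR, normalized to cyclophilin; fold expression relative to control, triplicate wells.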

[2] = biological target: T1, Brd4 bromodomain 1 (BRD4(1)) (Homo sapiens, UniProt O60885); test: Inhibition of tetra-acetylated histone H4 binding to Brd4 bromodomain 1, measured by FRET (HTRF); set-up: made in house; host or cells: E. coli BL21(DE3); conditions: 2 h at room temperature
Procedure, shortened: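 N-terminally His-tagged bromodomain (200 nM), expressed in E. coli and purified by Ni affinity and size exclusion, was incubated with biotinylated tetra-acetylated H4 peptide (25-50 nM), Eu-cryptate streptavidin and XL665 anti-His in HEPES pH 7.4 buffer with 0.2% DMSO. Reactions ran 2 h at room temperature. IC50 came from the 665/620 nm fluorescence decrease.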

Human AML MV-4-11 cells = test: Inhibition of cell proliferation in MV4-11 cells (CellTiter Aqueous One); type: cell-based; conditions: MV4-11, 72 h
Procedure, shortened: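 MV4-11 cells, 5×10^4 per well in IMDM with 10% FBS, were exposed to increasing compound concentrations or 0.1% DMSO for 72 h at 37 °C in triplicate. Viability was read by MTS (CellTiter Aqueous One) absorbance at 490 nm after 3-4 h. IC50 was derived from background-corrected signal relative to DMSO.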

hIL-17 mRNA = test: Inhibition of hIL-17 mRNA transcription in OKT3-stimulated peripheral blood mononuclear cells; type: cell-based; conditions: human PBMC, OKT3 stimulation 6 h, read-out: IL-17 Activity
Method: Human peripheral blood mononuclear cells were plated (2.0×10^5 cells per well) in a 96-well plate in 45 μL OpTimizer T Cell expansion media (Life Technologies) containing 20 ng/ml IL-2 and penicillin/streptomycin. The cells were treated with increasing concentrations of the test compound or DMSO (0.1%), and incubated at 37° C., 5% CO2 for 1 h before addition of 10× stock OKT3 antibody at 10 ug/ml in media. Triplicate wells were used for each concentration. Cells were incubated at 37° C., 5% CO2 for 6 h before the cells were harvested. At time of harvest, cells were pelleted by centrifugation at 800 rpm for 5 min. Cells were harvested using the mRNA Catcher PLUS kit according to manufacturer's instructions. The eluted mRNA was then used in a one-step quantitative real-time PCR reaction, using components of the RNA UltraSense™ One-Step Kit (Life Technologies) together with Applied Biosystems TaqMan® primer-probes for hIL-17 and Cyclophilin. Real-time PCR plates were run on a ViiA™7 real time PCR machine (Applied Biosystems), data was analyzed, normalizing the Ct values for hIL-17 to an internal control, prior to determining the fold induction of each unknown sample, relative to the control.

[3] = biological target: T1, Brd4 bromodomain 1 (BRD4(1)); test: Inhibition of tetra-acetylated histone H4 binding to Brd4 bromodomain 1, measured by FRET (HTRF); set-up: to Brd4 bromodomain 1 (BRD4(1) as Measured by FRET); made in house; host or cells: E. coli BL21(DE3); conditions: 2 h at room temperature
Method: Proteins were cloned and overexpressed with a N-terminal 6×His tag, then purified by nickel affinity followed by size exclusion chromatography. Briefly, E. coli BL21(DE3) cells were transformed with a recombinant expression vector encoding N-terminally Nickel affinity tagged bromodomains from Brd2, Brd3, Brd4. Cell cultures were incubated at 37° C. with shaking to the appropriate density and induced overnight with IPTG. The supernatant of lysed cells was loaded onto Ni-IDA column for purification. Eluted protein was pooled, concentrated and further purified by size exclusion chromatography. Fractions representing monomeric protein were pooled, concentrated, aliquoted, and frozen at −80° C. for use in subsequent experiments.
Binding of tetra-acetylated histone H4 and BET bromodomains was confirmed by a Homogenous Time Resolved Fluorescence Resonance Energy Transfer (HTRF®) method. […] After a 2 h incubation at room temperature, fluorescence was measured at 665 and 620 nm with a SynergyH4 plate reader (Biotek). The binding inhibitory activity was shown by a decrease in 665 nm relative to 620 nm fluorescence. IC50 values were determined from a dose response curve.

Row | IC50 [1] | IC50 (hIL-6 mRNA) | IC50 [2] | IC50 (Human AML MV-4-11 cells) | IC50 (hIL-17 mRNA) | IC50 [3] | SMILES | In vivo activity (MV4-11 cells)
1 | 300 to 3000 nM | ≤ 300 nM | ≤ 300 nM | 300 to 3000 nM | ≤ 300 nM | – | Cc1noc(C)c1-c1cc(-c2c(C)nn(C)c2C)c2nc[nH]c2c1 [Example Compound 9, 3,5-dimethyl-4-(4-(1,3,5-trimethyl-1H-pyrazol-4-yl)-1H-benzo[d]imidazol-6-yl)isoxazole] | Active
2 | 300 to 3000 nM | ≤ 300 nM | ≤ 300 nM | 300 to 3000 nM | ≤ 300 nM | – | Cc1ncccc1-c1cc(-c2c(C)noc2C)cc2[nH]cnc12 [Example Compound 27, 3,5-dimethyl-4-(4-(2-methylpyridin-3-yl)-1H-benzo[d]imidazol-6-yl)isoxazole] | Active
3 | 300 to 3000 nM | 300 to 3000 nM | – | 300 to 3000 nM | – | ≤ 300 nM | Cc1ncccc1-c1cc(-c2c(C)noc2C)cc2cn[nH]c12 [Example Compound 70] | –
